# According to BindingDB's records for doi:10.1016/j.bmcl.2017.11.040 (Hawaii Biotech, 2018):
# pKi: −log10 of the molar value.
# Target: T1, Calmodulin-sensitive adenylate cyclase (Bacillus anthracis, UniProt P40136)
# T1 sequence (P40136 whole entry): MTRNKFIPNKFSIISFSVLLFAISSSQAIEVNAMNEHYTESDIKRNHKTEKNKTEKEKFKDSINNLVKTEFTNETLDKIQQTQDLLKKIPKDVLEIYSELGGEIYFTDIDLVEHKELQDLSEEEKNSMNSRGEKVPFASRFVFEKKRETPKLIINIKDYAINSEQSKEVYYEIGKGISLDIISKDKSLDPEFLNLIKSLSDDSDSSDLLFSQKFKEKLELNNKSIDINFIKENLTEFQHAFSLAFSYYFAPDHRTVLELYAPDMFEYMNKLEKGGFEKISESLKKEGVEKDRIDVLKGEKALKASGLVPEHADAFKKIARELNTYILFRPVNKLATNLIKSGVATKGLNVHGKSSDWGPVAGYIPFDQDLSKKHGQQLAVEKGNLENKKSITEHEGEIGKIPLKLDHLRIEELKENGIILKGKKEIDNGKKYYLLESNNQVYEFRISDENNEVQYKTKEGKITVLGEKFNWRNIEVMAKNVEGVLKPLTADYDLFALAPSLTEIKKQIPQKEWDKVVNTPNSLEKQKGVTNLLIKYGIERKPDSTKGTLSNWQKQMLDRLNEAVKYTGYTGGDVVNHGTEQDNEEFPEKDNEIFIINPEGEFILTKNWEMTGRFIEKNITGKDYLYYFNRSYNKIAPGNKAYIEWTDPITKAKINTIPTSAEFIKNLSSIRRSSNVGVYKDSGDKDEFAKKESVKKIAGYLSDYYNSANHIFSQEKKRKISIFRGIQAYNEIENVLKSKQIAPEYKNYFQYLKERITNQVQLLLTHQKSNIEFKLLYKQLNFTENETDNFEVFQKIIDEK
# Experiment: Inactivation of Bacillus anthracis edema factor in presence of CaM incubated for 10 to 240 mins by EnzChek pyrophosphate assay
structure (smiles),measurement,value
Nc1cc(OC2CCN(C(=O)c3ccc(S(=O)(=O)F)cc3)CC2)ccn1,pKi,4.23
